For nine molecules, Ki results are on record in US8022099B2, “N-benzyl pyrrolidine derivatives” (Hoffmann-La Roche Inc., priority 2008, dated 2011).

Usually Ki stands for a dissociation constant, usually derived from enzyme kinetics or from competition with a known ligand.

This test has as its target T1, human NK3 receptor (Homo sapiens, UniProt P29371).
T1 construct: expressed in transfected cells; host or cells: HEK293 cells (transient expression), membrane preparation
T1 sequence (P29371 1-465): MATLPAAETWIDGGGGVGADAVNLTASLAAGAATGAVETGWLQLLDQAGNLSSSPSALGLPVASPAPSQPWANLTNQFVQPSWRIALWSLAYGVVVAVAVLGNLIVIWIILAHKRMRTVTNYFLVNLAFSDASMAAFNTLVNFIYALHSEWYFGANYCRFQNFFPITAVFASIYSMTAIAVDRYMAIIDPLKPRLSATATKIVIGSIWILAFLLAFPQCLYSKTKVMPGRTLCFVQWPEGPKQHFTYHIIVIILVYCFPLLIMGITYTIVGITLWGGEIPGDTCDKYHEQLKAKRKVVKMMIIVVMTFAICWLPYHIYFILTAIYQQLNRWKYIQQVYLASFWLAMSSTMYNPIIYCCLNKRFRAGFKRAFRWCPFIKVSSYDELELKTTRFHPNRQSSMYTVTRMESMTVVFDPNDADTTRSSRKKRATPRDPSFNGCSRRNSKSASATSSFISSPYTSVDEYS
The test is described as follows: [3H]SR142801 competition binding assay. As to conditions: hNK3 receptor binding, [3H]SR142801, membranes from HEK293 cells transiently expressing recombinant human NK3 receptor. How it is done:
[^3H]SR142801 Competition Binding Assay
hNK3 receptor binding experiment were performed using [^3H]SR142801 (Catalog No. TRK1035, specific activity: 74.0 Ci/mmol, Amersham, GE Healthcare UK limited, Buckinghamshire, UK) and membrane isolated from HEK293 cells transiently expressing recombinant human NK3 receptor. After thawing, the membrane homogenates were centrifuged at 48,000×g for 10 min at 4° C., the pellets were resuspended in the 50 mM Tris-HCl, 4 mM MnCl2, 1 μM phosphoramidon, 0.1% BSA binding buffer at pH 7.4 to a final assay concentration of 5 μg protein/well. For inhibition experiments, membranes were incubated with [^3H]SR142801 at a concentration equal to KD value of radioligand and 10 concentrations of the inhibitory compound (0.0003-10 μM) (in a total reaction volume of 500 μl) for 75 min at room temperature (RT). At the end of the incubation, membranes were filtered onto unitfilter (96-well white microplate with bonded GF/C filter preincubated 1 h in 0.3% PEI+0.3% BSA, Packard BioScience, Meriden, Conn.) with a Filtermate 196 harvester (Packard BioScience) and washed 4 times with ice-cold 50 mM Tris-HCl, pH 7.4 buffer. Nonspecific binding was measured in the presence of 10 μM SB222200 for both radioligands. The radioactivity on the filter was counted (5 min) on a Packard Top-count microplate scintillation counter with quenching correction after addition of 45 μl of microscint 40 (Canberra Packard S. A., Zürich, Switzerland) and shaking for 1 h. Inhibition curves were fitted according to the Hill equation: y=100/(1+(x/IC50)^nH), where nH=slope factor using Excel-fit 4 software (Microsoft). IC50 values were derived from the inhibition curve and the affinity constant (Ki) values were calculated using the Cheng-Prussoff equation Ki=IC50/(1+[L]/KD) where [L] is the concentration of radioligand and KD is its dissociation constant at the receptor, derived from the saturation isotherm. All experiments were performed in duplicate and the mean±standard error (SEM) of the individual Ki values was calculated.
For `COc1ccc(N2CCN(C(=O)N3C[C@H](c4ccc(Cl)c(Cl)c4)[C@@H](N(C)Cc4ccc(C(F)(F)F)c(F)c4)C3)CC2)cc1` (racemic) [Example 64, {(3SR,4RS)-3-(3,4-Dichloro-phenyl)-4-[(3-fluoro-4-trifluoromethyl-benzyl)-methyl-amino]-pyrrolidin-1-yl}-[4-(4-methoxy-phenyl)-piperazin-1-yl]-methanone], the inhibition constant Ki is 2.8 nM.
The same measure for `CN(Cc1ccc(C(F)(F)F)c(F)c1)[C@H]1CN(C(=O)N2CCN(c3ccccn3)CC2)C[C@@H]1c1ccc(Cl)c(Cl)c1` (racemic) [Example 65, {(3SR,4RS)-3-(3,4-Dichloro-phenyl)-4-[(3-fluoro-4-trifluoromethyl-benzyl)-methyl-amino]-pyrrolidin-1-yl}-(4-pyridin-2-yl-piperazin-1-yl)-methanone]: 4.1 nM.
Take `CN(Cc1ccc(C(F)(F)F)c(F)c1)[C@H]1CN(C(=O)N2CCN(CCCO)CC2)C[C@@H]1c1ccc(Cl)c(Cl)c1` (racemic) [Example 66, {(3SR,4RS)-3-(3,4-Dichloro-phenyl)-4-[(3-fluoro-4-trifluoromethyl-benzyl)-methyl-amino]-pyrrolidin-1-yl}-[4-(3-hydroxy-propyl)-piperazin-1-yl]-methanone]: the inhibition constant (Ki) stood at 3 nM.
The figure for `CN(Cc1ccc(C(F)(F)F)c(F)c1)[C@H]1CN(C(=O)N2CCN(CCO)CC2)C[C@@H]1c1ccc(Cl)c(Cl)c1` (racemic) [Example 67, {(3SR,4RS)-3-(3,4-Dichloro-phenyl)-4-[(3-fluoro-4-trifluoromethyl-benzyl)-methyl-amino]-pyrrolidin-1-yl}-[4-(2-hydroxy-ethyl)-piperazin-1-yl]-methanone] is 6.2 nM; for `CN(Cc1ccc(C(F)(F)F)c(F)c1)[C@H]1CN(C(=O)N2CCN(c3ccncc3)CC2)C[C@@H]1c1ccc(Cl)c(Cl)c1` (racemic) [Example 68, {(3SR,4RS)-3-(3,4-Dichloro-phenyl)-4-[(3-fluoro-4-trifluoromethyl-benzyl)-methyl-amino]-pyrrolidin-1-yl}-(4-pyridin-4-yl-piperazin-1-yl)-methanone] it is 5.9 nM.
The same measure for `CN(Cc1ccc(C(F)(F)F)c(F)c1)[C@H]1CN(C(=O)N2CCN(c3cnccn3)CC2)C[C@@H]1c1ccc(Cl)c(Cl)c1` (racemic) [Example 69, {(3SR,4RS)-3-(3,4-Dichloro-phenyl)-4-[(3-fluoro-4-trifluoromethyl-benzyl)-methyl-amino]-pyrrolidin-1-yl}-(2,3,5,6-tetrahydro-[1,2′]bipyrazinyl-4-yl)-methanone]: 4.7 nM; for `CN(Cc1ccc(C(F)(F)F)c(F)c1)[C@H]1CN(C(=O)N2CCN(c3ccccc3C#N)CC2)C[C@@H]1c1ccc(Cl)c(Cl)c1` (racemic) [Example 70, 2-(4-{(3SR,4RS)-3-(3,4-Dichloro-phenyl)-4-[(3-fluoro-4-trifluoromethyl-benzyl)-methyl-amino]-pyrrolidine-1-carbonyl}-piperazin-1-yl)-benzonitrile]: 10.5 nM.
The figure for `CN(Cc1ccc(C(F)(F)F)c(F)c1)[C@H]1CN(C(=O)N2CCN(c3ccc(C#N)cc3)CC2)C[C@@H]1c1ccc(Cl)c(Cl)c1` (racemic) [Example 72, 4-(4-{(3SR,4RS)-3-(3,4-Dichloro-phenyl)-4-[(3-fluoro-4-trifluoromethyl-benzyl)-methyl-amino]-pyrrolidine-1-carbonyl}-piperazin-1-yl)-benzonitrile] is 2.7 nM; for `CN(Cc1ccc(C(F)(F)F)c(F)c1)[C@H]1CN(C(=O)N2CCN(c3ccc(C#N)cn3)CC2)C[C@@H]1c1ccc(Cl)c(Cl)c1` (racemic) [Example 73, 6-(4-{(3SR,4RS)-3-(3,4-Dichloro-phenyl)-4-[(3-fluoro-4-trifluoromethyl-benzyl)-methyl-amino]-pyrrolidine-1-carbonyl}-piperazin-1-yl)-nicotinonitrile] it is 1.9 nM.
